As usually defined, the IC50 is the concentration needed to halve the response being measured.

We go through 32 molecules from patent US12336981B2, “Compounds and compositions for the inhibition of NAMPT” (Valo Health, Inc., priority 2010, dated 2025).

The structures appear in SMILES notation. Read-outs that look alike come from different tables or passages of the source.

The target of assay [1] is T1, NAMPT (Homo sapiens, UniProt P43490).
T1 construct: His tag; host or cells: E. coli
Nature of the assay: Biochemical inhibition assay: NAMPT enzymatic reaction, NMN quantified by mass spectrometry. Conditions: read-out: Biochem IC50. In short, it runs like this: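 Inhibition of E. coli-expressed His-tagged human NAMPT, measured as NMN formation by mass spectrometry after a 30 min room-temperature reaction containing 1 μM NAM, 100 μM PRPP and 2.5 mM ATP.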

In assay [2] the test system is A2780 cells. The assay is described as follows: In-vitro cell proliferation assay (SRB), A2780 cells. In kind it is cell-based. Conditions: Homo sapiens, A2780, 72 h, A2780 cells, 72 hours, read-out: A2780 IC50. In short, it runs like this:
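Cells were plated overnight at 37° C., 5% CO2, then exposed to serially diluted compounds (0.1% DMSO final) for 72 hours. Viable cells were measured by sulforhodamine B staining after TCA fixation, read at 570 nm; media-only background was subtracted before % inhibition was calculated.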

T1 sequence (P43490 whole entry): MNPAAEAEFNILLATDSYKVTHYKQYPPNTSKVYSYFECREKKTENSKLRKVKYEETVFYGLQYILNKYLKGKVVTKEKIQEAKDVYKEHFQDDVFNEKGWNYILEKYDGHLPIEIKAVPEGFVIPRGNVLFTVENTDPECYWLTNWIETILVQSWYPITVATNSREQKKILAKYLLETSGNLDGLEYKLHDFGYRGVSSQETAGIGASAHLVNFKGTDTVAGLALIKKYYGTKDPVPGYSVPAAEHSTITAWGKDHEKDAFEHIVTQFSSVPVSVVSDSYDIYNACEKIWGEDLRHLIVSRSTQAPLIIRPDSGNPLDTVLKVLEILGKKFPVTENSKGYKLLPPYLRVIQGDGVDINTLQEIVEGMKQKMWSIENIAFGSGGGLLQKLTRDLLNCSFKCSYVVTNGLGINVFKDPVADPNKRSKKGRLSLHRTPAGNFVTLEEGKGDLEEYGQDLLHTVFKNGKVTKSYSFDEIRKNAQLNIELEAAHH

In the case of `O=C(NCc1ccc(S(=O)(=O)Nc2cccc3c2CCCC3)cc1)c1cc2cnccc2[nH]1` [N-({4-[(5,6,7,8-tetrahydronaphthalen-1-yl)sulfamoyl]phenyl}methyl)-1H-pyrrolo[3,2-c]pyridine-2-carboxamide], the IC50 in assay [1] (NAMPT enzymatic reaction) and in assay [2] (SRB assay) was > 30000 nM each time.
As to `COc1ccc(C(C)=O)cc1S(=O)(=O)c1ccc(CNC(=O)c2cc3cnccc3[nH]2)cc1` [N-({4-[(5-acetyl-2-methoxybenzene)sulfonyl]phenyl}methyl)-1H-pyrrolo[3,2-c]pyridine-2-carboxamide], the results for the IC50 in assay [1] (NAMPT enzymatic reaction) and in assay [2] (SRB assay) were 20 nM and 6 nM, respectively.
Consider `COc1ccc(C(C)=O)cc1S(=O)(=O)c1ccc(CNC(=O)c2ccc3nccn3c2)cc1` [N-({4-[(5-acetyl-2-methoxybenzene)sulfonyl]phenyl}methyl)imidazo[1,2-a]pyridine-6-carboxamide], for which the figures for the 50% inhibitory concentration (IC50) in assay [1] (NAMPT enzymatic reaction) and in assay [2] (SRB) were 37.9 nM and 12.7 nM, respectively.
For `O=C(NCc1ccc(S(=O)(=O)c2cc(Cl)ccc2O)cc1)c1ccc2nccn2c1` [N-({4-[(5-chloro-2-hydroxybenzene)sulfonyl]phenyl}methyl)imidazo[1,2-a]pyridine-6-carboxamide], in that order: 14 nM and 168 nM.
As for `COc1ccc(Cl)cc1S(=O)(=O)c1ccc(CNC(=O)c2cc3cnccc3[nH]2)cc1` [N-({4-[(5-chloro-2-methoxybenzene)sulfonyl]phenyl}methyl)-1H-pyrrolo[3,2-c]pyridine-2-carboxamide], the half-maximal inhibitory concentration (IC50) stood at 6 nM in assay [1] (NAMPT enzymatic reaction) and 2 nM in assay [2] (SRB assay).
For `COc1ccc(Cl)cc1S(=O)(=O)c1ccc(CNC(=O)c2cc3ccncc3s2)cc1` [N-({4-[(5-chloro-2-methoxybenzene)sulfonyl]phenyl}methyl)thieno[2,3-c]pyridine-2-carboxamide], in that order: 4 nM and 1.3 nM.
The corresponding values for `COc1ccc(Cl)cc1NS(=O)(=O)c1ccc(CNC(=O)c2cc3cnccc3[nH]2)cc1` [N-({4-[(5-chloro-2-methoxyphenyl)sulfamoyl]phenyl}methyl)-1H-pyrrolo[3,2-c]pyridine-2-carboxamide] are 197 nM and 18000 nM.
On to `Cc1ccc(Cl)cc1S(=O)(=O)c1ccc(CNC(=O)c2cnc3[nH]ncc3c2)cc1` [N-({4-[(5-chloro-2-methylbenzene)sulfonyl]phenyl}methyl)-1H-pyrazolo[3,4-b]pyridine-5-carboxamide], for which the 50% inhibitory concentration (IC50) in assay [1] (NAMPT enzymatic reaction) was 22.7 nM; in assay [2] (SRB), 13.9 nM.
The corresponding values for `Cc1ccc(Cl)cc1S(=O)(=O)c1ccc(CNC(=O)c2ccc3nccn3c2)cc1` [N-({4-[(5-chloro-2-methylbenzene)sulfonyl]phenyl}methyl)imidazo[1,2-a]pyridine-6-carboxamide] are 1.9 nM and 3.7 nM.
The corresponding values for `CCCOc1ccc(Cl)cc1S(=O)(=O)c1ccc(CNC(=O)c2cnc3[nH]ncc3c2)cc1` [N-({4-[(5-chloro-2-propoxybenzene)sulfonyl]phenyl}methyl)-1H-pyrazolo[3,4-b]pyridine-5-carboxamide] are 49.2 nM and 25.1 nM.
On to `COc1ccc(F)cc1S(=O)(=O)c1ccc(CNC(=O)c2cc3cnccc3[nH]2)cc1` [N-({4-[(5-fluoro-2-methoxybenzene)sulfonyl]phenyl}methyl)-1H-pyrrolo[3,2-c]pyridine-2-carboxamide], for which the 50% inhibitory concentration (IC50) in assay [1] (NAMPT enzymatic reaction) was 5 nM; in assay [2] (SRB assay) it was 3 nM.
Regarding `COc1ccc(F)cc1S(=O)(=O)c1ccc(CNC(=O)c2ccc3nccn3c2)cc1` [N-({4-[(5-fluoro-2-methoxybenzene)sulfonyl]phenyl}methyl)imidazo[1,2-a]pyridine-6-carboxamide], the concentration for half-maximal inhibition (IC50) in assay [1] (NAMPT enzymatic reaction) came out at 22 nM; in assay [2] (SRB) it was 6.65 nM.
On to `COc1ccc(F)cc1NS(=O)(=O)c1ccc(CNC(=O)c2cc3cnccc3[nH]2)cc1` [N-({4-[(5-fluoro-2-methoxyphenyl)sulfamoyl]phenyl}methyl)-1H-pyrrolo[3,2-c]pyridine-2-carboxamide], for which the IC50 in assay [1] (NAMPT enzymatic reaction) was 232 nM; in assay [2] (SRB assay), > 30000 nM.
`COc1ccc(F)cc1NS(=O)(=O)c1ccc(CNC(=O)c2ccc3ncccc3c2)cc1` [N-({4-[(5-fluoro-2-methoxyphenyl)sulfamoyl]phenyl}methyl)quinoline-6-carboxamide]: the figures for the half-maximal inhibitory concentration (IC50) in assay [1] (NAMPT enzymatic assay) and in assay [2] (SRB) were 66 nM and 1000 to 10000 nM, respectively.
`Cc1ccc(F)cc1S(=O)(=O)c1ccc(CNC(=O)c2cnc3[nH]ncc3c2)cc1` [N-({4-[(5-fluoro-2-methylbenzene)sulfonyl]phenyl}methyl)-1H-pyrazolo[3,4-b]pyridine-5-carboxamide]: the 50% inhibitory concentration (IC50) in assay [1] (NAMPT enzymatic reaction) is 20.4 nM; in assay [2] (SRB), 59.7 nM.
For the molecule `Cc1ccc(F)cc1S(=O)(=O)c1ccc(CNC(=O)c2cc3cnccc3[nH]2)cc1` [N-({4-[(5-fluoro-2-methylbenzene)sulfonyl]phenyl}methyl)-1H-pyrrolo[3,2-c]pyridine-2-carboxamide], the concentration for half-maximal inhibition (IC50) in assay [1] (NAMPT enzymatic reaction) is 11 nM; in assay [2] (SRB assay), 7 nM.
Consider `Cc1ccc(F)cc1S(=O)(=O)c1ccc(CNC(=O)c2ccc3nccn3c2)cc1` [N-({4-[(5-fluoro-2-methylbenzene)sulfonyl]phenyl}methyl)imidazo[1,2-a]pyridine-6-carboxamide], for which the half-maximal inhibitory concentration (IC50) was 12.6 nM in assay [1] (NAMPT enzymatic reaction) and 22.9 nM in assay [2] (SRB).
As to `Cc1ccc(F)cc1S(=O)(=O)c1ccc(CNC(=O)c2cc3ccncc3s2)cc1` [N-({4-[(5-fluoro-2-methylbenzene)sulfonyl]phenyl}methyl)thieno[2,3-c]pyridine-2-carboxamide], the half-maximal inhibitory concentration (IC50) in assay [1] (NAMPT enzymatic reaction) was 3 nM; in assay [2] (SRB assay), 9.4 nM.
Consider `COc1ccc(C)c(NS(=O)(=O)c2ccc(CNC(=O)c3cc4cnccc4[nH]3)cc2)c1` [N-({4-[(5-methoxy-2-methylphenyl)sulfamoyl]phenyl}methyl)-1H-pyrrolo[3,2-c]pyridine-2-carboxamide], for which the IC50 amounted to 51 nM in assay [1] (NAMPT enzymatic reaction) and 13000 nM in assay [2] (SRB assay).
The corresponding values for `COc1ccc(C(C)(C)C)cc1S(=O)(=O)c1ccc(CNC(=O)c2cc3cnccc3[nH]2)cc1` [N-({4-[(5-tert-butyl-2-methoxybenzene)sulfonyl]phenyl}methyl)-1H-pyrrolo[3,2-c]pyridine-2-carboxamide] are 647 nM and 6 nM.
Regarding `COc1ccc(C(C)(C)C)cc1S(=O)(=O)c1ccc(CNC(=O)c2ccc3nccn3c2)cc1` [N-({4-[(5-tert-butyl-2-methoxybenzene)sulfonyl]phenyl}methyl)imidazo[1,2-a]pyridine-6-carboxamide], the half-maximal inhibitory concentration (IC50) in assay [1] (NAMPT enzymatic assay) is 29 nM; in assay [2] (SRB), 6.77 nM.
As to `COc1ccc(C(C)(C)C)cc1S(=O)(=O)c1ccc(CNC(=O)c2cc3ccncc3s2)cc1` [N-({4-[(5-tert-butyl-2-methoxybenzene)sulfonyl]phenyl}methyl)thieno[2,3-c]pyridine-2-carboxamide], the IC50 in assay [1] (NAMPT enzymatic reaction) was 15 nM; in assay [2] (SRB assay), 4.6 nM.
Consider `Cc1ccc(Cl)c(S(=O)(=O)c2ccc(CNC(=O)c3cnc4[nH]ncc4c3)cc2)c1F` [N-({4-[(6-chloro-2-fluoro-3-methylbenzene)sulfonyl]phenyl}methyl)-1H-pyrazolo[3,4-b]pyridine-5-carboxamide], for which the values for the IC50 in assay [1] (NAMPT enzymatic assay) and in assay [2] (SRB) were 112 nM and 100 to 1000 nM, respectively.
The corresponding values for `Cc1ccc(Cl)c(S(=O)(=O)c2ccc(CNC(=O)c3cc4ccncc4o3)cc2)c1F` [N-({4-[(6-chloro-2-fluoro-3-methylbenzene)sulfonyl]phenyl}methyl)furo[2,3-c]pyridine-2-carboxamide] are 21.9 nM and 29.3 nM.
Take `O=C(NCc1ccc(S(=O)(=O)Nc2cccc3cccnc23)cc1)c1cc2cnccc2[nH]1` [N-({4-[(quinolin-8-yl)sulfamoyl]phenyl}methyl)-1H-pyrrolo[3,2-c]pyridine-2-carboxamide]: the half-maximal inhibitory concentration (IC50) in assay [1] (NAMPT enzymatic reaction) came to 75 nM; in assay [2] (SRB assay), 1480 nM.
With `O=C(NCc1ccc(S(=O)(=O)c2cccc(Cl)c2)cc1)c1cc2ccncc2o1` [N-({4-[{3-chlorobenzene)sulfonyl]phenyl}methyl)furo[2,3-c]pyridine-2-carboxamide], the results for the IC50 in assay [1] (NAMPT enzymatic reaction) and in assay [2] (SRB) were 6 nM and 3.3 nM, respectively.
Regarding `COc1ccc(S(=O)(=O)c2ccc(CNC(=O)c3cc4ccncc4s3)cc2)cc1C` [N-({4-[{4-methoxy-3-methylbenzene)sulfonyl]phenyl}methyl)thieno[2,3-c]pyridine-2-carboxamide], the values for the 50% inhibitory concentration (IC50) in assay [1] (NAMPT enzymatic reaction) and in assay [2] (SRB assay) were 3 nM and 2.4 nM, respectively.
With `O=C(Nc1ccc(S(=O)(=O)c2ccccc2)cc1)c1cccnc1` [N-[4-(benzenesulfonyl)phenyl]pyridine-3-carboxamide], the results for the IC50 in assay [1] (NAMPT enzymatic reaction) and in assay [2] (SRB assay) were 12000 nM and > 30000 nM, respectively.
For `O=C(Nc1ccc(S(=O)(=O)N2CCCCC2)cc1)c1cc2cnccc2[nH]1` [N-[4-(piperidine-1-sulfonyl)phenyl]-1H-pyrrolo[3,2-c]pyridine-2-carboxamide], in that order: 8 nM and 6 nM.
On to `O=C(COc1cccnc1)Nc1ccc(S(=O)(=O)N2CCCCC2)cc1` [N-[4-(piperidine-1-sulfonyl)phenyl]-2-(pyridin-3-yloxy)acetamide], for which the IC50 in assay [1] (NAMPT enzymatic reaction) is 1.1 nM; in assay [2] (SRB assay), 6.6 nM.
As to `O=C(Nc1ccc(CNC(=O)c2cc3cnccc3[nH]2)cc1)c1ccccc1` [N-[(4-benzamidophenyl)methyl]-1H-pyrrolo[3,2-c]pyridine-2-carboxamide], the concentration for half-maximal inhibition (IC50) in assay [1] (NAMPT enzymatic reaction) came to 19 nM; in assay [2] (SRB assay) it was 4 nM.
For the molecule `O=C(NCc1ccc(NS(=O)(=O)c2ccccc2)cc1)c1cc2cnccc2[nH]1` [N-[(4-benzenesulfonamidophenyl)methyl]-1H-pyrrolo[3,2-c]pyridine-2-carboxamide], the results for the half-maximal inhibitory concentration (IC50) in assay [1] (NAMPT enzymatic reaction) and in assay [2] (SRB assay) were 11 nM and 5 nM, respectively.
